Marks after values point to notes of the source that are not given here.
How the values were obtained:
Format in all cases: cell-based, rat
[1] = test system: McA-RH7777 cells stably expressing human apoB100; test: Synthesis and secretion of [3H]glycerol-labelled TG and PC
Procedure: (§1) Cell Culture and Fatty Acid Treatments—Transfected McA-RH7777 cells stably expressing human apoB100 (McLeod et al., 1994, J. Biol. Chem. 269, 2852-2862) were cultured in Dulbecco's modified Eagle's medium (DMEM) containing 10% fetal bovine serum (FBS), 10% horse serum and 200 μg/ml G418. Routinely, the cells were incubated with 0.4 mM fatty acids for 16-18 h in the presence of 20% FBS prior to experiments.
Other Assays—The TG transfer activity of MTP was determined according to published method (Wetterau et al., 1992, Science 258, 999-1001) with modifications (Wang et al., 1999). The phosphatidate phosphohydrolase activity was determined by an established method (Jamal et al., 1991, J. Biol. Chem. 266, 2988-2996). Lipid extraction and analysis by TLC was performed as previously described (Tran et al., 2000). Protein was determined using the BCA™ protein assay kit (Pierce).

[2] = test system: McA-RH7777 cells stably expressing human apoB100; test: Competitive ELISA of apoB100 protein in medium; settings: after 16-h incubation, n=3
Procedure: as §1
Competitive Enzyme Linked Immunosorbent Assay (ELISA)—The ELISA plates were coated with human LDL (1 mg/ml in PBS, 16 h, 4° C.), blocked with skim milk (5% in PBS, 2 h, 37° C.), and washed three times with PBS containing 0.02% Tween-20. The plates were incubated with apoB monoclonal antibody 1D1 (1:64,000, 16 h, 4° C.) in the presence of serial diluted concentrations of human LDL or medium samples. The plates were washed and incubated with horseradish peroxidase-linked anti-mouse IgG antibody (1:10,000, 2 h, 37° C.), followed by addition of the liquid substrate system for ELISA (3,3′,5,5′-tetramethyl-benzidine). The reaction was quantified colorimetrically by spectrophotometer reading at OD665.

[3] = test system: McA-RH7777 cells stably expressing human apoB100; test: Tandem mass spectrometry of PC and PE in membranes of subcellular organelles; settings: for PC content, Total / PC content, membranes of ER / PC content, membranes of cis/medial Golgi / PC content, membranes of distal Golgi / PE content, Total / PE content, membranes of ER / PE content, membranes of cis/medial Golgi / PE content, membranes of distal Golgi: control cells set as 100
Excerpt: Subcellular Fractionation—Three subcellular fractions (i.e., ER, fractions 1 through 3; cis/medial Golgi, fractions 4 through 8; distal Golgi, fractions 9 through 15) were obtained from the cell lysates using Nycodenz gradient centrifugation (Hammond and Helenius, 1994, J. Cell Biol. 126, 41-52; Rickwood et al., 1982, Anal. Biochem. 123, 23-31) of the post-nuclear supernatant as previously described (Tran et al., 2002). […] The membrane and lumen preparations from ER (Nycodenz fractions 1 through 3), cis/medial Golgi (fractions 4 through 8), and distal Golgi (fractions 9 through 15) were derived from cells pooled from eight 100-mm dishes. Lipids were extracted from the samples with chloroform/methanol/acetic acid/saturated NaCl/H2O (4:2:0.1:1:2, by volume) in the presence of 230 pmol dimirystoyl (14:0-14:0) PC and 110 pmol dipalmitoyl (16:0-16:0) PE as internal standards. Aliquots of lipid extracts were applied to tandem mass spectrometry, and the molecular species (i.e. fatty acid composition) of PC and PE was determined by daughter ion analysis in the negative ion mode as previously described (Tran et al., 2002; DeLong et al., 1999, J. Biol. Chem. 274, 29683-29688). The integrated area under the peak of each molecular species was quantified by comparing with those of internal standards.

[4] = test system: McA-RH7777 cells stably expressing human apoB100; test: Pulse-chase (1 h pulse, up to 3 h chase) of apoB100 and apoA-I secretion efficiency
Procedure: The cells were then incubated with chase medium for 15, 30 and 45 min. At the end of each chase time, the medium was collected and subjected to cumulative rate flotation centrifugation (Wang et al., 1999) to resolve apoB100-VLDL1 (Sf>100) and apoB100-VLDL2 (Sf 20-100) from other lipoproteins (i.e. IDL, LDL and HDL). The ^35S-apoB100 in each fraction was recovered by immunoprecipitation. Also, at the end of each chase time, the radiolabeled cells were harvested in 2 ml of ice-cold homogenization buffer (10 mM Tris-HCl, pH 7.4, 250 mM sucrose, 5 mM EDTA, and serine/cysteine protease inhibitor mixture), mixed with two 100-mm dishes of unlabeled cells, homogenized by passing ten times through a ball-bearing homogenizer, and subjected to subcellular fractionation and carbonate-treatment as described below.
Oleate and EPA were present in both pulse and chase media. The [^35S]-apoB100 from total cell lysates (FIG. 2A) or conditioned media (FIG. 2B) was immunoprecipitated, resolved by SDS-PAGE, and visualized by fluorography. Radioactivity associated with [^35S]-apoB100 was quantified. As shown in the top panels of FIG. 2A to 2B, the data is expressed as absolute amount of radioactivity associated with [^35S]-apoB100 at the end of 1-h pulse. As shown in the […] panels of FIG. 2A to 2B, the data is expressed as percent of the initial counts associated with ^35S-apoB100 at the end of 1-h pulse. […] The experiments were repeated and similar results were obtained.
It has been shown previously that VLDL, particles carry >80% of total TG but <10% of total apoB100 secreted from oleate-treated McA-RH777 cells (Wang et al., 1999, J. Biol. Chem. 274: 27793-27800). Thus the possibility was considered that the above pulse (30-min)-chase(60 min) experiment might fail to detect decreased secretion and increased post-translational degradation of apoB100 because n-3 fatty acid treatment was reported to selectively decrease apoB100 in VLDL fractions (Fisher and Ginsberg, 2002, J. Biol. Chem. 277: 17377-17380). In the next set of experiments, the pulse-labelling period was extended to 1 h to maximize [^35S]-labelling of apoB100 and to allow examination of potential posttranslational degradation. […] The high labelling of apoB100 at the end of 1-h pulse may reflect increased intracellular accumulation of newly synthesized apoB100 and/or impaired secretion. […] The secretion efficiency, which measures the proportion of total metabolically labelled [^35S]-apoB100 secreted at the end of chase was decreased from 60% to 40% in EPA-treated cells compared to OA-treated cells (FIG. 2B, bottom). […]

[5] = end of 2-h labelling with [^3H]glycerol, means ± SD of triplicate

Compound	[^3H]PC Cell [1, 5]	[^3H]PC Medium [1, 5]	[^3H]TG Medium [1, 5]	amount of apoB100 protein accumulated in the medium [2]	PC content, Total [3]	PC content, membranes of ER [3]	PC content, membranes of cis/medial Golgi [3]	PC content, membranes of distal Golgi [3]	PE content, Total [3]	PE content, membranes of ER [3]	PE content, membranes of cis/medial Golgi [3]	PE content, membranes of distal Golgi [3]	increase in PE mass in the ER ([3]; vs untreated control)	increase in total PE mass ([3]; vs untreated control)	amount of [^35S] incorporated into apoB100 at the end of 1-h pulse [4]	further results
CC/C=C\C/C=C\C/C=C\C/C=C\C/C=C\CCCC(=O)O [EPA, eicosapentaenoic acid]	15.80 ± 0.44 cpm × 10^−3/dish	3.86 ± 0.57 cpm × 10^−3/dish	7.18 ± 0.96^b cpm × 10^−3/dish	2.5 ± 0.43 µg/mL	(92)* % of control	(108)* % of control	(70)* % of control	(94)* % of control	(185)* % of control	(216) % of control	(127) % of control	(270)* % of control	116%	85%	9.43×10^4 cpm/dish	[^3H]TG Cell [1, 5]: 40.84 ± 0.70^b cpm × 10^−3/dish; reduction in secretion of [^3H]glycerol-labelled TG ([1]; vs oleate-treated cells): 50%; increase in PE mass in the distal Golgi ([3]; vs untreated control): 170%; [^35S] incorporated into apoB100 at the end of 1-h pulse, greater than in oleate-treated cells [4]: ~40%; secretion efficiency (proportion of total metabolically labelled [^35S]-apoB100 secreted at the end of chase) ([4]; 3-h chase): 40%
CCCCCCCC/C=C\CCCCCCCC(=O)O [Oleate, oleic acid]	15.00 ± 0.23 cpm × 10^−3/dish	4.10 ± 0.12 cpm × 10^−3/dish	12.87 ± 1.59 cpm × 10^−3/dish	2.74 ± 0.48 µg/mL	(156) % of control	(182) % of control	(107) % of control	(173) % of control	(129) % of control	(172) % of control	(112) % of control	(106) % of control	72%	29%	6.40×10^4 cpm/dish	increase in PC mass in the ER ([3]; vs untreated control): 82%; increase in PC mass in the distal Golgi ([3]; vs untreated control): 73%; increase in total PC mass associated with intracellular microsomes ([3]; vs untreated control): 56%

— patent US20070149483A1, “Methods and compounds for modulating triglyceride and vldl secretion” (priority 2003, published 2007)
